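Five compound concentrations were applied to cells in 96-well plates for 48 hours; endpoints were derived by simple linear interpolation of the resulting dose-response curve. GI50 is the concentration that inhibits growth by half. TGI denotes the concentration required for complete inhibition of growth.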

Some test systems named below: SK-MEL-28 melanoma; 786-0 renal; HCC-2998 colon; HOP-92 NSCLC; RPMI-8226 leukemia; SN12C renal; UACC-62 melanoma; OVCAR-8 ovarian.
Holding throughout (assay): DTP human tumour cell line panel, 48 h

For the compound `O=c1[nH]c(=O)n(CCOc2ccccc2)cc1Nc1ccccc1`, the TGI in the assay with SK-MEL-28 melanoma, in the assay with 786-0 renal, in the assay on HCC-2998 colon, with HOP-92 NSCLC, in the assay on RPMI-8226 leukemia and in the assay with SN12C renal was greater than 100 µM throughout. The compound further had a TGI in the assay on UACC-62 melanoma greater than 100 µM.

For `COC(=O)C1=C(O)C(C(=O)OC)[C@]2(O)[C@H](C(=O)OC)[C@H]1C[C@@H](c1ccc(Cl)cc1)[C@H]2C(=O)OC` (some centres undefined), the TGI was 21.4 µM in the assay on SK-MEL-28 melanoma; greater than 100 µM in the assay with OVCAR-8 ovarian; 23.9 µM in the assay with 786-0 renal; 22 µM in the assay on HCC-2998 colon; 73.6 µM with HOP-92 NSCLC; greater than 100 µM in the assay with RPMI-8226 leukemia. In addition, the TGI in the assay with SN12C renal was determined as 79.6 µM; in the assay with UACC-62 melanoma it was 24.9 µM.

Consider `CCC/C=C/c1cc2c(cc1O)CC[C@@H]1[C@@H]2CC[C@]2(C)[C@@H](O)CC[C@@H]12`, for which the TGI in the assay on SK-MEL-28 melanoma was 36.5 µM; in the assay on OVCAR-8 ovarian it was 64.2 µM; with 786-0 renal, 30.1 µM; in the assay on HCC-2998 colon it was 38.8 µM; with HOP-92 NSCLC, 40.8 µM; with RPMI-8226 leukemia it was 37.5 µM. In addition, the TGI is 32.4 µM in the assay on SN12C renal and 29 µM with UACC-62 melanoma. In the assay with SN12C renal, the GI50 was 17.1 µM.

Regarding `CCN(CC)CCn1nc(N)c2nc3ccccc3nc21`, the TGI in the assay on SK-MEL-28 melanoma, with OVCAR-8 ovarian, in the assay with 786-0 renal, in the assay on HCC-2998 colon, in the assay with HOP-92 NSCLC and in the assay on RPMI-8226 leukemia was greater than 100 µM in each case. Moreover, the TGI with SN12C renal and with UACC-62 melanoma was greater than 100 µM in each case.

Take `C[C@]12CC[C@H](OC(=O)Cc3ccc(N(CCCl)CCCl)cc3)CC1=CC[C@@H]1[C@@H]2CC[C@]2(C)C(=O)CC[C@@H]12`: the total growth inhibition concentration (TGI) in the assay with SK-MEL-28 melanoma, with OVCAR-8 ovarian, with HCC-2998 colon, in the assay on HOP-92 NSCLC, with RPMI-8226 leukemia and with SN12C renal was greater than 100 µM in each case.

Take `O=P1(O)c2ccccc2CCc2ccccc21`: the TGI in the assay with SK-MEL-28 melanoma, in the assay with OVCAR-8 ovarian, in the assay on 786-0 renal, with HCC-2998 colon, in the assay with HOP-92 NSCLC and with RPMI-8226 leukemia was greater than 100 µM each time. Besides, the TGI in the assay on SN12C renal and in the assay with UACC-62 melanoma was greater than 100 µM each time.

For the compound `Cc1cc2c(cc1C(=O)CCC(=O)O)CC1(C2)Cc2cc(C)c(C(=O)CCC(=O)O)cc2C1`, the concentration for total growth inhibition (TGI) in the assay on SK-MEL-28 melanoma, in the assay on OVCAR-8 ovarian, in the assay on 786-0 renal, in the assay on HCC-2998 colon, in the assay on HOP-92 NSCLC and in the assay on RPMI-8226 leukemia was greater than 100 µM in each case. The compound further returned a TGI in the assay on SN12C renal greater than 100 µM.

Regarding `CCOC(=O)C1(Cc2ccccc2)C=CN(C(=O)c2ccccc2)C=C1`, the TGI with SK-MEL-28 melanoma is greater than 100 µM; in the assay on OVCAR-8 ovarian, greater than 100 µM; with 786-0 renal it was greater than 100 µM; with HCC-2998 colon it was greater than 100 µM; with HOP-92 NSCLC it was 80 µM; in the assay on RPMI-8226 leukemia, 48.6 µM. In addition, the TGI in the assay with SN12C renal is greater than 100 µM; in the assay with UACC-62 melanoma it was 72.9 µM.

Consider `c1ccc(-c2cn3c(nc4ccccc43)c(-c3ccccc3)n2)cc1`, for which the TGI with SK-MEL-28 melanoma is greater than 100 µM; with OVCAR-8 ovarian, 40.3 µM; in the assay with 786-0 renal, 45.1 µM; in the assay on HCC-2998 colon it was greater than 100 µM; in the assay with HOP-92 NSCLC, 62 µM; with RPMI-8226 leukemia, greater than 100 µM. The TGI in the assay with SN12C renal was greater than 100 µM; with UACC-62 melanoma it was greater than 55.6 µM.

As for `COc1cc(/C=C2/SC(c3ccccc3)N(c3ccccc3Cl)C2=O)cc(OC)c1OC` (centres undefined), the TGI with SK-MEL-28 melanoma is greater than 100 µM; with OVCAR-8 ovarian it was greater than 100 µM; in the assay on 786-0 renal, greater than 100 µM; in the assay on HCC-2998 colon, greater than 100 µM; with HOP-92 NSCLC, greater than 100 µM; in the assay with RPMI-8226 leukemia, 52.3 µM. Further, the results for the TGI in the assay on SN12C renal and in the assay on UACC-62 melanoma were 46.6 µM and greater than 100 µM, respectively.

With `CCOC(=O)c1cc2c([nH]1)c(O)cc1c2ccn1Cc1ccccc1`, the TGI in the assay on SK-MEL-28 melanoma amounted to 33.8 µM; in the assay on OVCAR-8 ovarian, 33.4 µM; with 786-0 renal, 32.6 µM; in the assay with HCC-2998 colon, 37 µM; in the assay on HOP-92 NSCLC, 27.7 µM; in the assay on RPMI-8226 leukemia, 27.9 µM. Further, the figures for the TGI in the assay with SN12C renal and in the assay with UACC-62 melanoma were 36.6 µM and 28.8 µM, respectively.

With `Ic1ccc2c(c1)N(c1ccccc1)c1cc(N=c3ccc4nc5ccc(I)cc5n(-c5ccccc5)c-4c3)ccc1N2`, the TGI with SK-MEL-28 melanoma, in the assay on OVCAR-8 ovarian, in the assay on 786-0 renal, in the assay on HCC-2998 colon, in the assay with HOP-92 NSCLC and in the assay with RPMI-8226 leukemia was greater than 100 µM each time. The TGI in the assay on SN12C renal and in the assay on UACC-62 melanoma was greater than 100 µM throughout.

For the compound `O=C(O)CCCn1nnc2c(=O)[nH][nH]c(=O)c21`, the TGI in the assay with SK-MEL-28 melanoma, with OVCAR-8 ovarian, in the assay on 786-0 renal, in the assay with HCC-2998 colon, in the assay on HOP-92 NSCLC and with RPMI-8226 leukemia was greater than 100 µM each time. In the assay with SN12C renal, the TGI was greater than 100 µM.

With `COc1ccc2c(c1)-c1nc(=S)n(CCCN(C)C)c3ccc([N+](=O)[O-])c(c13)N2`, the TGI in the assay on SK-MEL-28 melanoma is 2.81 µM; with OVCAR-8 ovarian, 6.5 µM; in the assay on 786-0 renal it was 1.36 µM; in the assay with HCC-2998 colon it was 18.6 µM; in the assay on HOP-92 NSCLC, 20.7 µM; in the assay on RPMI-8226 leukemia, 4.31 µM. The TGI in the assay on SN12C renal came out at 10.3 µM; in the assay with UACC-62 melanoma it was 25.9 µM.

On to `NCCCCC(NC(=O)C(N)Cc1ccc(O)cn1)C(=O)O` (centres undefined), for which the TGI in the assay with SK-MEL-28 melanoma, in the assay on OVCAR-8 ovarian, in the assay with 786-0 renal, in the assay with HCC-2998 colon, in the assay with HOP-92 NSCLC and with RPMI-8226 leukemia was greater than 100 µM each time. In the assay with SN12C renal, this compound registered a TGI greater than 100 µM.

`OCCCNc1nc(=S)[nH]c2[nH]ncc12`: the GI50 in the assay on SK-MEL-28 melanoma is 57.1 µM; with OVCAR-8 ovarian, 37.8 µM; in the assay on HCC-2998 colon, 22.3 µM; in the assay with HOP-92 NSCLC it was 65.6 µM; with RPMI-8226 leukemia it was 80.8 µM; in the assay with SN12C renal it was 41 µM. Besides, the GI50 in the assay with UACC-62 melanoma was 30 µM. Moreover, the TGI in the assay with SK-MEL-28 melanoma, in the assay with OVCAR-8 ovarian, with HCC-2998 colon, with HOP-92 NSCLC, with RPMI-8226 leukemia and in the assay with SN12C renal was greater than 100 µM throughout. The same compound had a TGI with UACC-62 melanoma greater than 100 µM.

As a reminder, the TGI is the concentration giving total growth inhibition. Low values mean greater sensitivity of the cells, high ones lower sensitivity of the cells. By GI50 is commonly meant the concentration at which growth is held to half of that of the control.
